Measured values reported in patent US20210046125A1, “DECELLULARIZED TISSUES, HYDROGELS THEREOF, AND USES THEREOF” (UNIVERSITY OF FLORIDA RESEARCH FOUNDATION, priority 2018, published 2021).

How the values were obtained:
peripheral nerve tissue [1] = test: Induction of apoptosis ex vivo (active caspase 3 immunochemistry, TUNEL); design: species or system Sprague Dawley rats; settings: 10 μM camptothecin, 37° C., 2 days
Description: Peripheral nerves were harvested from Sprague Dawley rats and decellularized according to an apoptosis-assisted protocol using 10 μM camptothecin in non-supplemented media at 37° C. for 2 days. Tissue in media without camptothecin was used as a control. Apoptotic agent treatment was succeeded by washes in saline buffered solutions to optimize cell removal. The degree of apoptosis, cellular removal, and matrix preservation was assessed using immunochemistry on nerve tissue sections and fluorescence imaging. Antibodies used to identify apoptosis, cell removal, and tissue preservation include those against active caspase 3 (Abcam); neurofilament (RT-97, DSHB) and 5100 (Dako); and laminin (Sigma), respectively, Apoptosis-mediated DNA fragmentation was assessed using a terminal deoxynucleotidyl transferase dUTP nick end labeling (TUNEL) assay. Total DNA content was quantified using a Picogreen DNA assay (Life Technologies) according to manufacturer's instructions. […] For FIGS. 5A and 5B, the images are fresh nerve (top half) and apoptosis decellularized nerve (bottom half). FIG. 5A was labeled for neurons (neurofilament, green), Schwann cells (S100, red), and nuclei (DAPI, blue). […] Induction of apoptosis was confirmed in treated nerve tissue by an increase in active caspase 3, an early mediator of apoptosis. […]

rat sciatic nerve [2] = test: TUNEL assay, preliminary studies; settings: samples treated with camptothecin
Description: (§1) Briefly, the injectable tissue hydrogels of this Example were generated by digesting rat sciatic nerves that had been decellularized by inducing cell […] (or apoptosis). Apoptosis can cause cells to form small apoptotic bodies containing cellular components, which can be more easily removed from the matrix. This approach has the potential to enhance matrix preservation and bioactivity, thus having a major impact on tissue engineering. In this Example, rat sciatic nerves were first harvested and decellularized by inducing apoptosis (described elsewhere herein and e,g. FIG. 11). Washing in camptothecin can induce apoptosis. Hypertonic washing (e,g. 4× PBS) can aid in cell removal. DNase treatment can degrade residual DNA content. Treatment with Chondroitinase ABC can be used to remove inhibitory proteoglycans. After the decellularization process, the resulting decellularized tissue can undergo enzymatic processing and further processing to balance pH where necessary. In some cases the decellularized tissue can be lyophilized prior to enzymatic digestion. In this particular example, pepsin was used to digest tissue at an acidic pH. After about […] of enzymatic digestion, the solution can be neutralized and isotonically balanced. The solution was further diluted with PBS. In some embodiments, the solution was diluted to 1/9 th of its volume in 10× PBS. […]

peripheral nerve tissue [3] = test: Picogreen DNA assay, total DNA content of apoptosis-decellularized peripheral nerve; design: species or system Sprague Dawley rats
Description: Peripheral nerves were harvested from Sprague Dawley rats and decellularized according to an apoptosis-assisted protocol using 5 μM camptothecin in non-supplemented media at 37° C. for 1 day. Tissue in media without camptothecin, an apoptotic agent, was used as a control. Apoptotic agent treatment was succeeded by washes in saline buffered solutions to optimize cell removal. Furthermore, the tissue was treated with 75 u/mL DNAse for 24 hours to ensure DNA removal. The degree of apoptosis, cellular removal, and matrix preservation was assessed using immunochemistry on nerve tissue sections and fluorescence imaging (FIG. 2). Antibodies used to identify apoptosis, cell removal, and tissue preservation include those against active caspase 3 (Abcam); neurofilament (RT-97, DSHB) and 5100 (Dako); and laminin (Sigma), respectively. […] FIGS. 2B and 2C show nerves treated with 5 μM for 1 day, washed with a hypertonic, and either washed with a […] or treated for 24 hours with DNAse, respectively. […] FIGS. 2E and 2F show treatment with higher camptothecin (10 μM), again for 1 day, and washed similarly to tissue in FIGS. 2B and 2C. These images depict 1) apoptosis induction is necessary prior to washing to effectively remove cellular components and 2) combing apoptosis induction with washes in non-isotonic solutions achieves cellular removal of peripheral nerve tissue. Total DNA content was quantified using a Picogreen DNA assay (Life Technologies) according to manufacturer's instructions.

rat sciatic nerve [4] = test: QuantiFluor dsDNA assay, residual DNA content in tissue; settings: apoptosis decellularization, QuantiFluor dsDNA kit
Description: as §1

**Q.** How did the “apoptosis ex vivo (caspase 3 activation and DNA fragmentation)” value (peripheral nerve tissue [1]) turn out when `CC[C@@]1(O)C(=O)OCc2c1cc1n(c2=O)Cc2cc3ccccc3nc2-1` [camptothecin] was run?
**A.** sufficient to elicit aspects of apoptosis ex vivo

**Q.** And the “apoptosis by TUNEL assay” value (rat sciatic nerve [2])?
**A.** enhanced apoptosis

**Q.** And the “reduction in DNA compared to fresh nerve” value (peripheral nerve tissue [3]; 5 μM camptothecin 1 day, hypertonic then hypotonic wash)?
**A.** 71.9%

**Q.** And the “reduction in DNA compared to fresh nerve” value (peripheral nerve tissue [3]; 5 μM camptothecin 1 day, hypotonic wash replaced with DNAse treatment)?
**A.** 95.1%

**Q.** What about the “reduction in DNA compared to fresh nerve” value (peripheral nerve tissue [3]; 10 μM camptothecin 1 day, hypertonic then hypotonic wash) of the same compound?
**A.** 57.3%

**Q.** What about the “reduction in DNA compared to fresh nerve” value (peripheral nerve tissue [3]; 10 μM camptothecin 1 day, hypotonic wash replaced with DNAse treatment) of the same compound?
**A.** 95.8%

**Q.** What about the DNA removal (rat sciatic nerve [4]) of the same compound?
**A.** greater than 90%
